Measured values taken from article PMC8602401 (Scientific Reports, 2021).
*1 amine or outer side, *2 acyl side, *3 side chain or, on linkers, in order; H or OH if unused. Where a SMILES comes first, the peptide text is derived from it. Side-chain parts run from the residue outwards. [ ]: non-standard residue; d: D form. The star is where a group is joined. γGlu = O=C(O)[C@H](CCC(=O)[*:2])N[*:1]; αMeF = C[C@](N)(Cc1ccccc1)C(=O)O; αMeK = C[C@](N)(CCCCN)C(=O)O; Lauroyl = CCCCCCCCCCCC(=O)*; αMeS = C[C@](N)(CO)C(=O)O; AEEA = NCCOCCOCC(=O)O; Aib = CC(C)(N)C(=O)O

Key:
[1] = molecular target: T1, GLP-1R (endogenously expressed, EndoC-βH1 cells) (Homo sapiens, UniProt P43220); test: cAMP accumulation assay in EndoC-βH1 human pancreatic β-cells; type: cell-based; conditions: geometric mean (SEM)
T1 construct: EndoC-βH1 human pancreatic β-cell line, which endogenously expresses GLP-1R; endogenous in cells; host or cells: EndoC-βH1 human pancreatic β-cells
T1 sequence (P43220 24-463): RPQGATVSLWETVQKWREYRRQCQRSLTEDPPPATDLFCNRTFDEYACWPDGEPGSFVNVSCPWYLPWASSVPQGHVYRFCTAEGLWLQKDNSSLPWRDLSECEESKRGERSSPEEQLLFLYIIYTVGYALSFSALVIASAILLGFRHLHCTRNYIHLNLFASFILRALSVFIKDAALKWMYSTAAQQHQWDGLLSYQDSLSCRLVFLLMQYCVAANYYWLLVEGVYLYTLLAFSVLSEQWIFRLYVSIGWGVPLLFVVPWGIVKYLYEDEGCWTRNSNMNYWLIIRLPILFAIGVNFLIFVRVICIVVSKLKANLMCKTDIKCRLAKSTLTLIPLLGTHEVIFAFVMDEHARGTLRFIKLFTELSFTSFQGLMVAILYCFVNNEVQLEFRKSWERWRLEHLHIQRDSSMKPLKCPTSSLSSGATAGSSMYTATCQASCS
Experimental: All reagents for cAMP assays were obtained from Sigma-Aldrich unless otherwise specified.
Cells were suspended in assay buffer and combined with serially diluted peptides at room temperature for 30 min. cAMP levels were measured using a cAMP dynamic 2 HTRF kit (Cisbio, Codolet, France), following the manufacturer’s two-step protocol, on an EnVision plate reader (PerkinElmer, Waltham, MA, USA). […] The transformed data were analyzed by four-parameter logistic fit to determine EC50 values using GraphPad Prism 6 (GraphPad Software, San Diego, CA, USA).

human plasma protein = test: EScalate equilibrium shift assay, human plasma; type: in vitro ADME
Experimental: Binding of peptides to human plasma proteins was determined by the EScalate equilibrium shift assay (Sovicell, Leipzig, Germany), using five dilutions of plasma in phosphate buffered saline and an assumed binding protein concentration of 600 µM. Samples were incubated for 1 h at room temperature then centrifuged to remove the HSA-coated beads. Supernatant samples were analyzed using HPLC (3 µm Phenomenex Aeris Widepore XB-C18 stationary phase) coupled to an electrospray ionization quadrupole time-of-flight mass spectrometer in high resolution accurate mass mode (Agilent, Santa Clara, CA, USA). Unbound fractions were calculated from the concentration-dependent shift in binding equilibrium according to fu=1/1+P/KDPlasma , where P is the concentration of the binding protein in plasma and KDPlasma is the dissociation constant of the compound from plasma proteins in solution.

[2] = EScalate equilibrium shift assay, rat plasma; type: in vitro ADME; conditions: rat; EScalate equilibrium shift, five dilutions of plasma in PBS, 1 h at room temperature, HPLC-QTOF MS; read-out: Fraction unbound peptide (%), rat
rat plasma protein = test: EScalate equilibrium shift assay, rat plasma; type: in vitro ADME; conditions: EScalate equilibrium shift assay
[3] = system: diet-induced obese (DIO) mouse model; test: Body weight, blood glucose and plasma insulin in diet-induced obese mouse model; type: in vivo; conditions: DIO mice
Experimental: Male 20-week-old C57Bl/6 J mice were single-housed for approximately 14 weeks with ad libitum access to water and 60% high-fat diet (D12492, Research Diets). Mice were randomized into groups of 12 mice per group on baseline body weight, 6 h fasting glucose and 6 h fasting insulin. Over 21 days, mice received daily subcutaneous injections of 10 nmol/kg of test peptides or placebo (50 mM Tris–HCl, 150 mM mannitol, 0.02% polysorbate 80; pH 8.0). Body weight was measured daily and fasting glucose and insulin levels were measured on day 14 following a 6-h fast. Blood was collected via tail-snip and glucose was measured with an Ascensia Breeze 2 glucometer (Bayer, Mishawaka, IN, USA). Insulin was measured in plasma using a Meso Scale rat/insulin kit (Meso Scale Discovery, Rockville, MD, USA).

[4] = Bioavailability after intraduodenal administration with permeation enhancers in rats; type: in vivo, rat
Experimental: Male Sprague Dawley rats (Charles River, Shrewsbury, MA, USA) weighing 250–275 g were housed with ad libitum access to standard chow and water. Test peptides were administered via either an intravenous or a duodenal catheter (4 rats per group) after overnight fasting, and food was returned following 4 h blood collection. Blood was collected via a jugular vein catheter at − 5, 15 and 30 min and 1, 2, 4, 8 and 24 h after intravenous dosing, or for intraduodenal groups at 15 min predose and 0.5, 1, 2, 4, 8, 24 and 48 h postdose. Blood was collected in K2EDTA tubes and kept on wet ice prior to 10 min centrifugation (3000 × g) at 5 °C ± 3 °C. Plasma samples were stored at − 70 °C until analysis.
Fifty or seventy μL aliquots of K2EDTA plasma samples were precipitated with 75% acetonitrile (Sigma-Aldrich) in water (J.T. Baker, Phillipsburg, NJ, USA) (v/v) and centrifuged at 2000 × g. The supernatant was dried under nitrogen at 60 °C, then cooled. Samples were reconstituted in 20% acetonitrile in water (v/v). […] Gradient separation was performed with water and 0.2% formic acid (Thermo Fisher Scientific, Waltham, MA, USA) as mobile phase A, and acetonitrile with 0.2% formic acid as mobile phase B. The method was qualified for the quantification range of 1–1000 ng/mL with accuracy and precision of ± 20%, except for at the lower limit of quantification when the accuracy and precision were ± 25%. Plasma concentrations were subject to noncompartmental analysis consistent with the route of administration using Phoenix WinNonlin (version 7.0, Certara, Princeton, NJ, USA).

[5] = Pharmacokinetics of oral tablets in dogs; type: in vivo; conditions: oral tablets 20 mg/dog, semaglutide: 300 mg SNAC, uncoated, MEDI7219: 100 mg NaCDC and 200 mg PG, pH 5.5 enteric, n = 9
HFHF fed dogs = test: Dog model of obesity and insulin resistance (HFHF fed dogs), oral tablets; type: in vivo; conditions: for plasma glucose excursions after oral glucose challenge: 10–40 min after glucose, P < 0.05, n = 7–11 per group
Experimental: For the single-dose study, dogs were randomized on baseline glucose levels to receive MEDI7219 1 mg or 10 mg or placebo tablets in the morning following an overnight fast (7–11 dogs per group). Ninety minutes after tablet administration, dogs received an oral glucose bolus (200 mg/mL at a 5 mL/kg volume calculated on body weight prior to HFHF feeding), and blood glucose (blood collected via peripheral vein) was measured with an AlphaTRAK glucometer system (Zoetis, Parsippany, NJ, USA) at –90, 0, 10, 20, 30, 40, 50, 60, 75, 90, 120, 180 and 240 min after glucose administration. Approximately 12 weeks later, dogs entered the multiple-dose study and received either MEDI7219 10 mg (n = 12) or placebo tablets (n = 6) once daily for 14 days. Dogs received two cups of HFHF canine diet per day, with feeding 3 h postdose during the 14-day study. Dogs had access to water ad libitum throughout the study. Food intake and body weight were monitored daily. On day 14, after overnight fasting, dogs received their final dose followed by an oral glucose and acetaminophen bolus 90 min after administration. Blood glucose was measured as described previously, and plasma acetaminophen levels were measured by LC/MS method at the same time points.

[6] = 10 nmol/kg daily subcutaneous, day 14, n = 12 per group

EC50 ([1]; 0.1% BSA, 30 min at room temperature, HTRF cAMP, n ≥ 3 independent experiments): 1.36 nM | Human EndoC-βH1 cAMP 0.1% BSA Effect at max. concentration ([1]; % activation, 80 nM native GLP-1 defines maximum effect): 97.5 (7.1) % | peptide bound to plasma proteins, human (human plasma protein; EScalate equilibrium shift assay): over 97% | peptide bound to plasma proteins, rat (rat plasma protein): over 97% | fold higher mean bioavailability than semaglutide ([4]; intraduodenal with permeation enhancers): 13 fold | mean bioavailability (%F) ([4]; single intraduodenal administration with permeation enhancers (NaCDC and PG), n = 4 per group): 1.01% | AUC0-inf ([5]; arithmetic mean (% CV)): 13,500 (54.2) ng·h/mL | CL/F (oral clearance) ([5]; arithmetic mean (% CV)): 1,880 (52.1) mL/h | Cmax ([5]; arithmetic mean (% CV)): 1,450 (63.2) ng/mL | F (bioavailability, systemic fraction) ([5]; arithmetic mean (% CV)): 5.92 (54.2) % | Tmax ([5]; median (min–max)): 1.5 (1.0–4.5) hours | t½ ([5]; plasma, LC/MS, arithmetic mean (% CV)): 9.8 (13.2) hours
SMILES: CCCCCCCCCCCC(=O)N[C@@H](CCC(=O)NCCOCCOCC(=O)NCCOCCOCC(=O)NCCCC[C@H](NC(=O)[C@H](C)NC(=O)[C@@H](NC(=O)[C@](C)(Cc1ccccc1)NC(=O)[C@H](CCC(=O)O)NC(=O)[C@](C)(CCCCN)NC(=O)[C@H](C)NC(=O)[C@H](C)NC(=O)[C@H](CCC(=O)O)NC(=O)CNC(=O)[C@H](CCC(=O)O)NC(=O)[C@H](CC(C)C)NC(=O)[C@H](CCCCNC(=O)COCCOCCNC(=O)COCCOCCNC(=O)CC[C@H](NC(=O)CCCCCCCCCCC)C(=O)O)NC(=O)[C@H](CO)NC(=O)[C@](C)(CO)NC(=O)[C@@H](NC(=O)[C@H](CC(=O)O)NC(=O)[C@H](CO)NC(=O)[C@@H](NC(=O)[C@](C)(Cc1ccccc1)NC(=O)[C@H](CO)NC(=O)CNC(=O)[C@H](CCC(=O)O)NC(=O)C(C)(C)NC(=O)[C@@H](N)Cc1c[nH]cn1)[C@@H](C)O)C(C)C)[C@@H](C)CC)C(=O)N[C@H](C(=O)N[C@H](C(=O)N[C@@H](CCC(=O)O)C(=O)NCC(=O)NCC(N)=O)C(C)C)C(C)C)C(=O)O [MEDI7219] (H-H[Aib]EGS[αMeF]TSDV[αMeS]SK([AEEA-AEEA-γGlu-Lauroyl])LEGEAA[αMeK]E[αMeF]IAK([AEEA-AEEA-γGlu-Lauroyl])VVEGG-NH2)
Fraction unbound peptide (%), human (human plasma protein; EScalate equilibrium shift, HSA-coated beads, five dilutions of plasma in PBS, 1 h at room temperature, HPLC-QTOF MS): 1.75% | fraction unbound at 1 h [2]: 0.006 | Body weight change (%) ([3]; 10 nmol/kg daily subcutaneous over 21 days, n = 12 per group, Fig. 3b): −17.0% | body weight reduction after 21 days ([3]; 10 nmol/kg daily subcutaneous, 21 days, n = 12 per group): 17.0% | 6-h fasting blood glucose – day 14 [3, 6]: 133.0 mg/dL | 6-h fasting plasma insulin – day 14 [3, 6]: 0.74 ng/mL | body weight change over 14 days (HFHF fed dogs; once-daily 10 mg oral tablets, 14 days, placebo + 0.71%, P < 0.05, n = 12): –4.86% | glucose excursions in oral glucose tolerance test, day 14 (HFHF fed dogs; once-daily 10 mg oral tablets, fasted, postdose day 14, versus placebo, P < 0.01): significant improvements in glucose excursions | peak plasma acetaminophen concentration (gastric emptying), day 14 (HFHF fed dogs; once-daily 10 mg oral tablets, oral acetaminophen with glucose bolus, versus placebo): significantly reduced at 20–40 min (P < 0.05) and delayed | cumulative food intake over 14 days (HFHF fed dogs; once-daily 10 mg oral tablets, versus placebo, P < 0.05): significantly decreased cumulative food intake | plasma glucose excursions after oral glucose challenge (HFHF fed dogs; single dose 1 mg oral tablet, versus placebo): statistically significantly improved | plasma glucose excursions after oral glucose challenge (HFHF fed dogs; single dose 10 mg oral tablet, versus placebo): statistically significantly improved
